Experiments:
AsPC-1 HiBiT-KRASG12D = molecular target: T1, AsPC-1 HiBiT-KRASG12D (Homo sapiens, UniProt P01116, G12D); test: HiBiT degradation assay (G12D), AsPC-1 HiBiT-KRASG12D cells; assay type: cell-based; conditions: 24 hours treatment; for Dmax: ASPC1, AsPC-1 HiBiT-KRASG12D cells, maximum degradation observed; for DC50: AsPC-1 HiBiT-KRASG12D cells, HiBiT luminescence
T1 construct: insert the HiBiT tag onto the N-terminus of one or more of the endogenous KRAS alleles; endogenous in cells; host or cells: AsPC-1 (ATCC CRL-1682), CRISPR-Cas9 knock-in clone, one tagged allele
T1 sequence (P01116 1-188 isoform P01116-2 G12D): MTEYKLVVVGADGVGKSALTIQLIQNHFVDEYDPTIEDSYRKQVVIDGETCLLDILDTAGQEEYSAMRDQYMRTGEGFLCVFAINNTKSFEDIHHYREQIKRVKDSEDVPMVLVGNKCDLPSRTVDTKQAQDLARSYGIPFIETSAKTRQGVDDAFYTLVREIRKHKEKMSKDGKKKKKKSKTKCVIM
Summary of the method: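 HiBiT-KRAS abundance was read as Nano-Glo HiBiT lytic luminescence (45 min, room temperature) after a PBS wash. Before that, a 4 h alamar blue fluorescence read, normalized to DMSO, monitored viability. Treatment lasted 24 hours at 37 °C, in triplicate, using AsPC-1 cells with endogenous N-terminally HiBiT-tagged KRAS G12D.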

SW1573 HiBiT-KRASG12C = molecular target: T2, SW1573 HiBiT-KRASG12C (Homo sapiens, UniProt P01116, G12C); test: HiBiT degradation assay (G12C), SW1573 HiBiT-KRASG12C cells; assay type: cell-based; conditions: 24 hours treatment; for DC50: HiBiT luminescence; for Dmax: maximum degradation observed;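 for DC50: Letter grades: C is 1000 to 3000 nM and D is above 3000 nM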
T2 construct: expressed in transfected cells
T2 sequence (P01116 1-188 isoform P01116-2 G12C): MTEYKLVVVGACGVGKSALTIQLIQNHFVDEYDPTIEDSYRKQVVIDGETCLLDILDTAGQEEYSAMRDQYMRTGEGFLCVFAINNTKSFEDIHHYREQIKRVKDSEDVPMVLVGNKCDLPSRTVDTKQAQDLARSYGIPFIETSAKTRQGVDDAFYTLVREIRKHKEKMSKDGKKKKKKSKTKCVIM
Protocol: Reagents. SW1573 (CRL-2170), AsPC-1 (CRL-1682), and SW620 (CCL-227) cells were purchased from ATCC. SW1573 cells are homozygous for the G12C mutation in KRAS, AsPC-1 cells are homozygous for the G12D mutation, and SW620 cells are homozygous for the G12V mutation. SW1573 cells were cultured in DMEM+F12+Glutamax (+Sodium Bicarbonate, +sodium pyruvate, ThermoFisher scientific, #10565) supplemented with 10% FBS (ThermoFisher scientific, #2060357) and 1% Antibiotic-Antimycotic (ThermoFisher scientific, #15240096). AsPC-1 cells were cultured in GIBCO RPMI-1640 (ThermoFisher scientific, catalog #61870-036 with Glutamax, No HEPES, No Na Pyruvate) supplemented with 10% FBS (ThermoFisher scientific, catalog #2060357) and 1× Penicillin-Streptomycin (ThermoFisher scientific, catalog #15140122, 10000 U/ml, 100×). SW620 cells were cultured in DMEM Glutamax (ThermoFisher scientific, catalog #10566016) supplemented with 10% FBS (ThermoFisher scientific, catalog #2060357) and 1× Penicillin-Streptomycin (ThermoFisher scientific, catalog #15140122, 10000 U/ml, 100×). For degradation assays, 384 well plates were used. Alamar blue was purchased from ThermoFisher scientific (A50101) and used according to manufacturer instructions. The Nano-Glo® HiBiT Lytic Detection System and Nano-Glo® HiBiT Blotting System were purchased from Promega (#N3050 and #N2410) and used according to manufacturer instructions.
HiBiT-tagged cell line generation. To create the SW1573 HiBiT-KRASG12C cell line, the nucleotide sequence encoding the 11 amino acid HiBiT tag from Promegal was appended to the N-terminus of the KRASG12C coding sequence. This synthesized DNA was cloned into a modified pcDNA3.1 vector under the control of the thymidine kinase (TK) promoter. This HiBiT-KRASG12C expressing plasmid was transfected into parental SW1573 cells and colonies were selected using 400 μg/mL zeocin. The resulting clonal lines were screened for expression of HiBiT-KRASG12C protein using Nano-Glo® HiBiT Blotting System. A luminescent band of the correct size for HiBiT-KRASG12C was detected in several clones. Clone E6 was selected for further studies.
HiBiT degradation assays (G12C and G12D). Either SW1573 HiBiT-KRasG12C or AsPC-1 HiBiT-KRasG12D cells were plated at 9000 or 15,000 cells/well in a 384 well plate (Corning #3770). Compounds of the present disclosure and positive controls were diluted in the appropriate cell media and applied to the plated cells resulting in a final concentration titration of 10 μM to 508 pM in 0.5% DMSO. Gambogic acid was used as a positive control for cytotoxicity and titrated from 10 μM to 78 nM. All assays were performed in triplicate. Cells were treated with compounds for 24 hours at 37° C. in an incubator containing 5% CO2. Following treatment, alamar blue was used to determine if any compounds led to a loss in cell viability after 24 hours. The 10× alamar blue reagent was added to a final concentration of 1× as recommended by the manufacturer and cells were returned to the incubator for 4 hours. Plates were then allowed to equilibrate to room temperature and fluorescence was measured using a Perkin-Elmer EnVision. After completion of the fluorescence read, the liquid from each well was removed and the cells were washed with PBS. The Nano-Glo® HiBiT detection reagent was prepared according to the manufacturer's instructions and added to each well after the PBS wash was removed. Following incubation at room temperature for 45 minutes, the luminescence was read using the ultra-sensitive luminescence aperture on the Envision instrument.
Data analysis. Fluorescence values from the alamar blue treatment were normalized to the DMSO-only control for each compound titration. […]

| SMILES | Dmax (AsPC-1 HiBiT-KRASG12D) | DC50 (AsPC-1 HiBiT-KRASG12D) | DC50 (SW1573 HiBiT-KRASG12C) | Dmax (SW1573 HiBiT-KRASG12C) |
| --- | --- | --- | --- | --- |
| CCc1cccc2cccc(-c3ncc4c(N5CC6CCC(C5)N6)nc(OC[C@@]56CCCN5[C@H](COC(=O)N5CCN(c7cc([C@H](C(=O)N8C[C@H](O)C[C@H]8C(=O)N[C@@H](C)c8ccc(-c9scnc9C)cc8)C(C)C)on7)CC5)CC6)nc4c3F)c12 [Compound 35, [(3S,7aS)-7a-{[(4-{3,8-diazabicyclo[3.2.1]octan-3-yl}-7-(8-ethylnaphthalen-1-yl)-8-fluoropyrido[4,3-d]pyrimidin-2-yl)oxy]methyl}-hexahydro-1H-pyrrolizin-3-yl]methyl 4-{5-[(2R)-1-[(2S,4R)-4-hydroxy-2-{[(1S)-1-[4-(4-methyl-1,3-thiazol-5-yl)phenyl]ethyl]carbamoyl}pyrrolidin-1-yl]-3-methyl-1-oxobutan-2-yl]-1,2-oxazol-3-yl}piperazine-1-carboxylate] | 80 to 100% | < 0.6 µM | > 3 µM | – |
| CCc1cccc2cc(O)cc(-c3ncc4c(N5CC6CCC(C5)N6)nc(OCCN5CCC(OCC(=O)N[C@H](C(=O)N6C[C@H](O)C[C@H]6C(=O)N[C@@H](C)c6ccc(-c7scnc7C)cc6)C(C)(C)C)CC5)nc4c3F)c12 [Compound 12, (2S,4R)-1-[(2S)-2-[[2-[[1-[2-[4-(3,8-diazabicyclo[3.2.1]octan-3-yl)-7-(8-ethyl-3-hydroxy-1-naphthyl)-8-fluoro-pyrido[4,3-d]pyrimidin-2-yl]oxyethyl]-4-piperidyl]oxy]acetyl]amino]-3,3-dimethyl-butanoyl]-4-hydroxy-N-[(1S)-1-[4-(4-methylthiazol-5-yl)phenyl]ethyl]pyrrolidine-2-carboxamide] | 80 to 100% | 1 to 3 µM | > 3 µM | – |
| C#Cc1cccc2cc(O)cc(-c3ncc4c(N5CC6CCC(C5)N6)nc(OCCN5CCC(COc6cc([C@H](C(=O)N7C[C@H](O)C[C@H]7C(=O)N[C@@H](C)c7ccc(-c8scnc8C)cc7)C(C)C)on6)CC5)nc4c3F)c12 [Compound 48, (2S,4R)-1-[(2R)-2-{3-[(1-{2-[(4-{3,8-diazabicyclo[3.2.1]octan-3-yl}-7-(8-ethynyl-3-hydroxynaphthalen-1-yl)-8-fluoropyrido[4,3-d]pyrimidin-2-yl)oxy]ethyl}piperidin-4-yl)methoxy]-1,2-oxazol-5-yl}-3-methylbutanoyl]-4-hydroxy-N-[(1S)-1-[4-(4-methyl-1,3-thiazol-5-yl)phenyl]ethyl]pyrrolidine-2-carboxamide] | 80 to 100% | < 0.6 µM | > 3 µM | – |
| CCc1cccc2cc(O)cc(-c3ncc4c(N5CC6CCC(C5)N6)nc(OC[C@]56CCCN5[C@@H](COCC(=O)N[C@H](C(=O)N5C[C@H](O)C[C@H]5C(=O)N[C@@H](C)c5ccc(-c7scnc7C)cc5)C(C)(C)C)CC6)nc4c3F)c12 [Compound 1, (2S,4R)-1-[(2S)-2-[[2-[[(3R,8R)-8-[[4-(3,8-diazabicyclo[3.2.1]octan-3-yl)-7-(8-ethyl-3-hydroxy-1-naphthyl)-8-fluoro-pyrido[4,3-d]pyrimidin-2-yl]oxymethyl]-1,2,3,5,6,7-hexahydropyrrolizin-3-yl]methoxy]acetyl]amino]-3,3-dimethyl-butanoyl]-4-hydroxy-N-[(1S)-1-[4-(4-methylthiazol-5-yl)phenyl]ethyl]pyrrolidine-2-carboxamide] | 80 to 100% | 0.6 to 1 µM | > 3 µM | 20 to 60% |
| Cc1ncsc1-c1ccc([C@H](C)NC(=O)[C@@H]2C[C@@H](O)CN2C(=O)[C@@H](c2cc(OCC3CCN(CCOc4nc(N5CC6CCC(C5)N6)c5cnc(-c6c(OC(F)(F)F)ccc7[nH]ncc67)c(F)c5n4)CC3)no2)C(C)C)cc1 [Compound 47, (2S,4R)-1-[(2R)-2-{3-[(1-{2-[(4-{3,8-diazabicyclo[3.2.1]octan-3-yl}-8-fluoro-7-[5-(trifluoromethoxy)-1H-indazol-4-yl]pyrido[4,3-d]pyrimidin-2-yl)oxy]ethyl}piperidin-4-yl)methoxy]-1,2-oxazol-5-yl}-3-methylbutanoyl]-4-hydroxy-N-[(1S)-1-[4-(4-methyl-1,3-thiazol-5-yl)phenyl]ethyl]pyrrolidine-2-carboxamide] | – | > 3 µM | > 3 µM | – |
| C#Cc1c(F)ccc2cc(O)cc(-c3ncc4c(N5CC6CCC(C5)N6)nc(OCCN5CCC(COc6cc([C@H](C(=O)N7C[C@H](O)C[C@H]7C(=O)N[C@@H](C)c7ccc(-c8scnc8C)cc7)C(C)C)on6)CC5)nc4c3F)c12 [Compound 39, (2S,4R)-1-[(2R)-2-{3-[(1-{2-[(4-{3,8-diazabicyclo[3.2.1]octan-3-yl}-7-(8-ethynyl-7-fluoro-3-hydroxynaphthalen-1-yl)-8-fluoropyrido[4,3-d]pyrimidin-2-yl)oxy]ethyl}piperidin-4-yl)methoxy]-1,2-oxazol-5-yl}-3-methylbutanoyl]-4-hydroxy-N-[(1S)-1-[4-(4-methyl-1,3-thiazol-5-yl)phenyl]ethyl]pyrrolidine-2-carboxamide] | 80 to 100% | < 0.6 µM | 1 to 3 µM | 20 to 60% |
| CCc1cccc2cc(O)cc(-c3ncc4c(N5CC6CCC(C5)N6)nc(OCCN5CCC(OCCOCC(=O)N[C@H](C(=O)N6C[C@H](O)C[C@H]6C(=O)N[C@@H](C)c6ccc(-c7scnc7C)cc6)C(C)(C)C)CC5)nc4c3F)c12 [Compound 11] | 60 to 80% | 1 to 3 µM | > 3 µM | – |
| CCc1cccc2cc(O)cc(-c3ncc4c(N5CCCCCC5)nc(OC[C@]56CCCN5[C@@H](COC(=O)N5CCN(c7cc([C@@H](C(=O)N8C[C@H](O)C[C@H]8C(=O)N[C@@H](C)c8ccc(-c9scnc9C)cc8)C(C)C)on7)CC5)CC6)nc4c3F)c12 [Compound 46, [(3R,7aR)-7a-({[4-(azepan-1-yl)-7-(8-ethyl-3-hydroxynaphthalen-1-yl)-8-fluoropyrido[4,3-d]pyrimidin-2-yl]oxy}methyl)-hexahydro-1H-pyrrolizin-3-yl]methyl 4-{5-[(2S)-1-[(2S,4R)-4-hydroxy-2-{[(1S)-1-[4-(4-methyl-1,3-thiazol-5-yl)phenyl]ethyl]carbamoyl}pyrrolidin-1-yl]-3-methyl-1-oxobutan-2-yl]-1,2-oxazol-3-yl}piperazine-1-carboxylate] | – | > 3 µM | > 3 µM | – |
| CCc1cccc2cc(O)cc(-c3ncc4c(N5CC6CCC(C5)N6)nc(OCCN5CCC6(CC5)CN(c5cc([C@@H](C(=O)N7C[C@H](O)C[C@H]7C(=O)N[C@@H](C)c7ccc(-c8scnc8C)cc7)C(C)C)on5)C6)nc4c3F)c12 [Compound 15, (2S,4R)-1-[(2S)-2-[3-[7-[2-[4-(3,8-diazabicyclo[3.2.1]octan-3-yl)-7-(8-ethyl-3-hydroxy-1-naphthyl)-8-fluoro-pyrido[4,3-d]pyrimidin-2-yl]oxyethyl]-2,7-diazaspiro[3.5]nonan-2-yl]isoxazol-5-yl]-3-methyl-butanoyl]-4-hydroxy-N-[(1S)-1-[4-(4-methylthiazol-5-yl)phenyl]ethyl]pyrrolidine-2-carboxamide] | 20 to 60% | 1 to 3 µM | > 3 µM | – |
